The values below come from patent US20130303509A1, “NAMPT INHIBITORS” (AbbVie Inc., priority 2012, published 2013).

In general, IC50 refers to the concentration needed to halve the response being measured. High values mean weaker potency, low ones greater potency.

The subject of the assay is PC3 cells. Put plainly: NAMPT Cell Proliferation Assay. The assay is classed as cell-based. To be noted: Homo sapiens, PC-3, 120 h, 5 days incubation, cell viability by Cell Titer Glo. In outline:
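Seeded at 500 cells/well in RPMI with 10% heat-inactivated FBS and left to attach overnight at 37° C, 5% CO2. Compounds were added as 10-fold dilutions […] for 5 days, then viability was read by CellTiter-Glo. IC50s came from sigmoidal fits of percent inhibition.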
On the technique in general: Cellular ATP, detected with luciferase, serves as a proxy for viable cell number.
`O=C(Nc1ccc(C2CCN(C(=O)Cc3ccc(F)cc3)CC2)cc1)C1CN(c2cccnn2)C1` [Example 368, N-(4-{1-[(4-fluorophenyl)acetyl]piperidin-4-yl}phenyl)-1-(pyridazin-3-yl)azetidine-3-carboxamide] displayed a 50% inhibitory concentration (IC50) of 7.7 nM.

`O=C(Nc1ccc(O[C@@H]2CCN(C(=O)c3cccc(OC(F)(F)F)c3)C2)cc1)C1CN(c2cccnn2)C1` [Example 504, 1-(pyridazin-3-yl)-N-[4-({(3R)-1-[3-(trifluoromethoxy)benzoyl]pyrrolidin-3-yl}oxy)phenyl]azetidine-3-carboxamide] came in with an IC50 of 7.75 nM. Take `O=C(Nc1ccc(C2CCN(C(=O)c3ccc(Cl)cc3Cl)CC2)cc1)[C@H]1CCN(c2cccnn2)C1` [Example 674, (3S)-N-{4-[1-(2,4-dichlorobenzoyl)piperidin-4-yl]phenyl}-1-(pyridazin-3-yl)pyrrolidine-3-carboxamide]: inhibition was half-maximal at 5.72 nM (IC50). `O=C(Nc1ccc(OC2CCN(C(=O)c3ccccc3F)CC2)cc1)[C@H]1CCN(c2cccnn2)C1` [Example 797, (3S)-N-(4-{[1-(2-fluorobenzoyl)piperidin-4-yl]oxy}phenyl)-1-(pyridazin-3-yl)pyrrolidine-3-carboxamide] registered an IC50 of 12.6 nM.

The compound `CC(C)(C)CCN1CCC(c2ccc(NC(=O)C3CN(c4cccnc4)C3)cc2)CC1` [Example 87, N-{4-[1-(3,3-dimethylbutyl)piperidin-4-yl]phenyl}-1-(pyridin-3-yl)azetidine-3-carboxamide] displayed an IC50 of 31.7 nM. With `O=C(Nc1ccc(C2CCN(C(=O)c3ccccc3Cl)CC2)cc1)C1CN(c2cccnn2)C1` [Example 350, N-{4-[1-(2-chlorobenzoyl)piperidin-4-yl]phenyl}-1-(pyridazin-3-yl)azetidine-3-carboxamide], half-maximal inhibition (IC50) required 0.75 nM. Regarding `O=C(Nc1ccc(C2CCN(C(=O)CSc3ncccn3)CC2)cc1)C1CN(c2cccnn2)C1` [Example 382, 1-(pyridazin-3-yl)-N-(4-{1-[(pyrimidin-2-ylsulfanyl)acetyl]piperidin-4-yl}phenyl)azetidine-3-carboxamide], the IC50 worked out at 8.99 nM. To `O=C(Nc1ccc(S(=O)(=O)C2CCN(C(=O)c3ccccc3)CC2)cc1)C1CN(c2ccnnc2)C1` [Example 615, N-{4-[(1-benzoylpiperidin-4-yl)sulfonyl]phenyl}-1-(pyridazin-4-yl)azetidine-3-carboxamide] belongs 6150 nM; to `O=C(Nc1ccc(O[C@@H]2CCN(C(=O)Cc3ccc(F)cc3F)C2)cc1)C1CN(c2ccnnc2)C1` [Example 454, N-[4-({(3R)-1-[(2,4-difluorophenyl)acetyl]pyrrolidin-3-yl}oxy)phenyl]-1-(pyridazin-4-yl)azetidine-3-carboxamide], 106 nM. Next, `CCC(C)C(=O)N1CCC(c2ccc(NC(=O)[C@H]3CCN(c4cccnn4)C3)cc2)CC1` (stereo partly drawn) [Example 706, (3S)-N-{4-[1-(2-methylbutanoyl)piperidin-4-yl]phenyl}-1-(pyridazin-3-yl)pyrrolidine-3-carboxamide]: 7.7 nM; `O=C(Nc1ccc(C2CCN(C(=O)c3cc(C(F)(F)F)ccc3F)CC2)cc1)C1CN(c2cccnn2)C1` [Example 394, N-(4-{1-[2-fluoro-5-(trifluoromethyl)benzoyl]piperidin-4-yl}phenyl)-1-(pyridazin-3-yl)azetidine-3-carboxamide]: 1.99 nM; `O=C(Nc1ccc(O[C@@H]2CCN(C(=O)c3cccc(OC(F)(F)F)c3)C2)cc1)C1CN(c2ccnnc2)C1` [Example 462, 1-(pyridazin-4-yl)-N-[4-({(3R)-1-[3-(trifluoromethoxy)benzoyl]pyrrolidin-3-yl}oxy)phenyl]azetidine-3-carboxamide]: 214 nM. The compound `CC[C@H](C)C(=O)N1CCC(Oc2ccc(NC(=O)C3CN(c4cccnn4)C3)cc2)CC1` [Example 212, N-[4-({1-[(2S)-2-methylbutanoyl]piperidin-4-yl}oxy)phenyl]-1-(pyridazin-3-yl)azetidine-3-carboxamide] showed a half-maximal inhibitory concentration (IC50) of 5.79 nM.

Compound `CC(C)(C(=O)N1CC[C@@H](Oc2ccc(NC(=O)C3CN(c4ccnnc4)C3)cc2)C1)c1ccccc1` [Example 466, N-(4-{[(3R)-1-(2-methyl-2-phenylpropanoyl)pyrrolidin-3-yl]oxy}phenyl)-1-(pyridazin-4-yl)azetidine-3-carboxamide] gave a half-inhibitory concentration (IC50) of 8.07 nM. As for `N#Cc1cncc(N2CC(C(=O)Nc3ccc(C4CCN(C(=O)c5ccccc5)CC4)cc3)C2)c1` [Example 740, N-[4-(1-benzoylpiperidin-4-yl)phenyl]-1-(5-cyanopyridin-3-yl)azetidine-3-carboxamide], the IC50 was 914 nM. Against the preceding compound, the IC50 is about 110-fold higher. Next, `CC(C)(C)C(=O)N1CCC(c2ccc(NC(=O)C3CN(c4ccnnc4)C3)c(F)c2)CC1` [Example 870, N-{4-[1-(2,2-dimethylpropanoyl)piperidin-4-yl]-2-fluorophenyl}-1-(pyridazin-4-yl)azetidine-3-carboxamide]: 3.2 nM; `CC(C)(C)Cn1cc(-c2ccc(NC(=O)[C@H]3CCN(c4cccnn4)C3)cc2)cn1` [Example 759, (3S)-N-{4-[1-(2,2-dimethylpropyl)-1H-pyrazol-4-yl]phenyl}-1-(pyridazin-3-yl)pyrrolidine-3-carboxamide]: 6.2 nM; `O=C(Nc1ccc(O[C@@H]2CCN(C(=O)Cc3cccc(F)c3)C2)cc1)C1CN(c2ccnnc2)C1` [Example 452, N-[4-({(3R)-1-[(3-fluorophenyl)acetyl]pyrrolidin-3-yl}oxy)phenyl]-1-(pyridazin-4-yl)azetidine-3-carboxamide]: 63.2 nM. `CCOCCC(=O)N1CCC(c2ccc(NC(=O)C3CN(c4cccnn4)C3)cc2)CC1` [Example 380, N-{4-[1-(3-ethoxypropanoyl)piperidin-4-yl]phenyl}-1-(pyridazin-3-yl)azetidine-3-carboxamide] came in with an IC50 of 7.57 nM. On to `O=C(Nc1ccc(C2CCN(C(=O)c3ccc(O)cc3)CC2)cc1)C1CN(c2cccnn2)C1` [Example 344, N-{4-[1-(4-hydroxybenzoyl)piperidin-4-yl]phenyl}-1-(pyridazin-3-yl)azetidine-3-carboxamide], for which the IC50 was determined as 8.9 nM.

On to `O=C(Nc1ccc(C2CCN(C(=O)Cc3ccccc3Cl)CC2)cc1)[C@H]1CCN(c2cccnn2)C1` [Example 721, (3S)-N-(4-{1-[(2-chlorophenyl)acetyl]piperidin-4-yl}phenyl)-1-(pyridazin-3-yl)pyrrolidine-3-carboxamide], for which 8.39 nM corresponded to half-maximal inhibition (IC50). `Cc1ccc(S(=O)(=O)NCC(=O)N2CCC(c3ccc(NC(=O)C4CN(c5cccnn5)C4)cc3)CC2)cc1` [Example 418, N-[4-(1-{N-[(4-methylphenyl)sulfonyl]glycyl}piperidin-4-yl)phenyl]-1-(pyridazin-3-yl)azetidine-3-carboxamide] yielded an IC50 of 8.26 nM. Next, `CCCC(C)CN1CCC(c2ccc(NC(=O)C3CN(c4cccnc4)C3)cc2)CC1` (stereo not drawn) [Example 90, N-{4-[1-(2-methylpentyl)piperidin-4-yl]phenyl}-1-(pyridin-3-yl)azetidine-3-carboxamide]: 60.1 nM; `O=C(Nc1ccc(C2CCN(C(=O)Cc3cccc(F)c3)CC2)cc1)C1CN(c2cccnn2)C1` [Example 367, N-(4-{1-[(3-fluorophenyl)acetyl]piperidin-4-yl}phenyl)-1-(pyridazin-3-yl)azetidine-3-carboxamide]: 6.38 nM. In turn, `CC(C)C(=O)N1CC[C@@H](Oc2ccc(NC(=O)C3CN(c4ccnnc4)C3)cc2)C1` [Example 471, N-(4-{[(3R)-1-(2-methylpropanoyl)pyrrolidin-3-yl]oxy}phenyl)-1-(pyridazin-4-yl)azetidine-3-carboxamide] came in with a 50% inhibitory concentration (IC50) of 72 nM. `CC(C)C(=O)N1CCC(c2ccc(NC(=O)C3CN(c4ccc(F)nn4)C3)cc2)CC1` [Example 821, 1-(6-fluoropyridazin-3-yl)-N-{4-[1-(2-methylpropanoyl)piperidin-4-yl]phenyl}azetidine-3-carboxamide] yielded an IC50 of 165 nM.

`O=C(Nc1ccc(OC2CCN(C(=O)c3ccc(OC(F)(F)F)cc3)CC2)cc1)C1CN(c2cccnn2)C1` [Example 235, 1-(pyridazin-3-yl)-N-[4-({1-[4-(trifluoromethoxy)benzoyl]piperidin-4-yl}oxy)phenyl]azetidine-3-carboxamide] came in with an IC50 of 12.4 nM. As to `O=C(Nc1ccc(C2CCN(C(=O)C3(c4ccccc4)CC3)CC2)cc1)C1CN(c2cccnn2)C1` [Example 381, N-(4-{1-[(1-phenylcyclopropyl)carbonyl]piperidin-4-yl}phenyl)-1-(pyridazin-3-yl)azetidine-3-carboxamide], the midpoint of inhibition, the IC50, lay at 1.87 nM. Next, `O=C(Nc1ccc(OC2CCN(C(=O)c3cccc(OC(F)(F)F)c3)CC2)cc1)C1CN(c2cccnn2)C1` [Example 224, 1-(pyridazin-3-yl)-N-[4-({1-[3-(trifluoromethoxy)benzoyl]piperidin-4-yl}oxy)phenyl]azetidine-3-carboxamide]: 7.52 nM; `O=C(Nc1ccc(C2CCN(C(=O)c3cccc(Cl)c3)CC2)cc1)C1CN(c2ccnnc2)C1` [Example 544, N-{4-[1-(3-chlorobenzoyl)piperidin-4-yl]phenyl}-1-(pyridazin-4-yl)azetidine-3-carboxamide]: 7.17 nM; `O=C(Nc1ccc(O[C@@H]2CCN(C(=O)c3nccs3)C2)cc1)C1CN(c2ccnnc2)C1` [Example 443, 1-(pyridazin-4-yl)-N-(4-{[(3R)-1-(1,3-thiazol-2-ylcarbonyl)pyrrolidin-3-yl]oxy}phenyl)azetidine-3-carboxamide]: 5.65 nM.

In the case of `COCC(=O)N1CCC(Oc2ccc(NC(=O)C3CN(c4cccnc4)C3)cc2)CC1` [Example 57, N-(4-{[1-(methoxyacetyl)piperidin-4-yl]oxy}phenyl)-1-(pyridin-3-yl)azetidine-3-carboxamide], half-maximal inhibition (IC50) required 8.75 nM. Compared with the last compound, the IC50 is about 1.5-fold higher.

For the compound `O=C(Nc1ccc(S(=O)(=O)C2CCN(C(=O)c3ccccc3Cl)CC2)cc1)C1CN(c2cccnn2)C1` [Example 611, N-(4-{[1-(2-chlorobenzoyl)piperidin-4-yl]sulfonyl}phenyl)-1-(pyridazin-3-yl)azetidine-3-carboxamide], half-maximal inhibition (IC50) required 90 nM.
